Entries after “also recorded” stand apart in the source; their conditions may differ.
Legend:
[1] = Reintroduction of causal food allergen in food allergy patients; format: in vivo, human; conditions: baseline patients treated with one drug alone
Text: Allergens tested came from either […], or ALLERBIO.
The direct test with the Nutella® was strongly positive for allergy. This patient was hospitalized in two occasions for the same dramatic allergic reaction to Nutella® spread. Furthermore, the patient presented allergies to pneumoallergens.
Continuation of the above treatment for over 8 months afforded reversal of allergic and digestive symptoms due to food allergy.
The patient under study had survived two cases of anaphylactic shock due to ingestion of shrimps. […] Later the patient was able to ingest five shrimps without any local signs and no global reaction.
Baseline patients had signs of food allergies and the food allergy symptoms were not adequately managed with an H1 antagonist and cromoglycate. A group of 15 patients presenting signs of food allergies is tested with allergens such as the following: peanut, milk, tomato, potato, flour of wheat, soybean, fish, and shrimp. Allergens tested came from either […], or ALLERBIO.
All patients had history of hospitalization and reactions such as Quincke's edema and asthma crisis. Most of the causal allergens were peanut (six patients), egg (four patients) and soybean (five patients) of them (with other several positive food allergens at different degrees of reaction). […]

[2] = tested on: hematopoietic progenitor cells; experiment: CFU of hematopoietic progenitor cells in the presence of Ara-C; format: cell-based; conditions: listed as TRQ
Text: Ara-C is a chemotherapeutic agent that kills cancel cells (or actively dividing cells).

[3] = tested on: Colony Forming Cells (CFC, mouse medullary cells C57B1/6) expressing H4R; experiment: Cell cycle analysis of haematopoietic progenitor cells (propidium iodide, FACS); format: cell-based; conditions: 10 μM
Description: Haematopoietic progenitor cells were incubated for 1-3 day(s) with a cocktail of growth factors (IL-3, 10 ng/ml, IL-6 10 ng/ml), […] (50 ng/ml) in the culture medium StemSpan® (without serum) in the presence and absence of TRQ and H4R antagonist (JNJ7777120, Sigma Aldrich).
Cells were later stained with propidium iodide (PI) for the analysis of the cell cycle according to the following protocol:
2×10^6 cells/ml were labelled with CD1 17-FITC for 20 min in PBS, then washed in PBS and stained with PBS 1% formaldehyde, without methanol, at 4° C. for 5 min and again washed in PBS.
The cells were then lysed with 1 ml of PVTritonX100 and RNAse without DNAse (0.2 mcg/ml), PI (20 mcg/ml), and incubated in PBS for 30 min at ambient temperature.
The lysed cells were analyzed with FACS scan (FL2-area IFL2-width) for cell cycle analysis and FL1 for labelling of cell Surface.
10^6 cells enriched in haematopoietic stem cells were incubated in 2 ml of CFSE […] in PBS 10 min, 37° C. The reaction was stopped by the addition of cold PBS in excess (5×) and centrifuged for 5 min at 1700 rpm.
Cells were resuspended in the culture medium StemSpan® (without serum) and stimulated with the growth Factor cocktail, and analyze in FACs scan (FL1) after 72 hours incubation.

H4R = target: T1, H4R (Mus musculus, UniProt Q91ZY2); experiment: Cell cycle status after H4R silencing with siRNA; format: cell-based; conditions: 10 μM; H4R siRNA transfected c-kit+ cells
T1 construct: endogenous in cells; host or cells: freshly sorted c-kit+ haematopoietic progenitor cells
T1 sequence (Q91ZY2 1-391): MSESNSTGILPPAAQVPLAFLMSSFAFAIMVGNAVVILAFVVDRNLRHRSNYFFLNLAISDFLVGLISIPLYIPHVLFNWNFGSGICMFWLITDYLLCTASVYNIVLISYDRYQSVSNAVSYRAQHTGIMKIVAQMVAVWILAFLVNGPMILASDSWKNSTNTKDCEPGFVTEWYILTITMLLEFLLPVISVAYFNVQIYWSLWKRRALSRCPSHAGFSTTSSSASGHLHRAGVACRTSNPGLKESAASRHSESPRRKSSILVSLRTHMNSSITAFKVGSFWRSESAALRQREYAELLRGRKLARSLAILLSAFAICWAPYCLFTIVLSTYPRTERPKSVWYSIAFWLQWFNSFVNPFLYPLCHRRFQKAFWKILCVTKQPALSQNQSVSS
Description: H4R silencing was performed with freshly sorted c-kit^+ cells. For transfection, 3 μl of HiPerFect reagent (Qiagen; Courtaboeuf, France) and 4 μl ([…]) of human and 8 μl (80 pmol) of murine H4R siRNA, scrambled FITC-labeled or unconjugated control siRNAs (all from Santa Cruz Biotechnology) were incubated in 50 μl x-vivo medium (Cambrex; East Rutherford, N.J.) for 20 min at room temperature. The mixture was then added to 50 μl of cell suspension at a final concentration of 10^6 cells/ml and incubated for 20 h, when transfection efficiency was verified with scrambled FITC-conjugated siRNA. Cells were then centrifuged and resuspended at a concentration of 10^5 cells/ml in StemSpan medium with growth factor cocktail. The extinction of H4R protein expression was ascertained by FACS analysis after 24 h. After 3 days of culture with or without tritoqualine (10 μM) or Clobenpropit (10 μM) cells were counted and their viability was assessed by trypan blue exclusion. The cell cycle status was assessed after an overnight incubation.

CCOc1c(N)c2c(c(OCC)c1OCC)C(C1c3c(cc4c(c3OC)OCO4)CCN1C)OC2=O (racemic) [Tritoqualine, 7-Amino-4,5,6-triethoxy-3-(5,6,7,8-tetrahydro-4-methoxy-6-methyl-1,3-dioxolo[4,5-g]isoquinolin-5-yl) phthalide]
management of food allergy symptoms with the single drug [1]: did not yield satisfactory management | protection of cells / cell CFU in the presence of Ara-C [2]: provides protection to the cells; also recorded: cell CFU remains high

CCOc1c(N)c2c(c(OCC)c1OCC)[C@H]([C@H]1c3c(cc4c(c3OC)OCO4)CCN1C)OC2=O [E1]
haematopoietic progenitor cells blocked (G0/G1) [3]: Approximately 48% | activity inhibiting the cell cycle at the G0/G1 phase after H4R siRNA (H4R): reversed

CCOc1c(N)c2c(c(OCC)c1OCC)[C@@H]([C@@H]1c3c(cc4c(c3OC)OCO4)CCN1C)OC2=O [E2]
haematopoietic progenitor cells blocked (G0/G1) [3]: Approximately 60% | activity inhibiting the cell cycle at the G0/G1 phase after H4R siRNA (H4R): reversed

Source: patent publication US8207188B2, “Treatment of diseases modulated by a H4 receptor agonist” (priority 2006, dated 2012)
